Laboratory results: PubChem BioAssay (NCI)
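Values below derive from 48-hour exposures of cells grown in 96-well plates, with endpoints linearly interpolated between the two concentrations bracketing the appropriate inhibition level. TGI: concentration producing complete growth inhibition.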

Columns and labels:
Experiment in all cases: growth of human tumour cells (NCI), 48 h
MDA-MB-435 = tested on: MDA-MB-435
OVCAR-5 ovarian = tested on: OVCAR-5 ovarian
HCT-15 colon = tested on: HCT-15 colon
DU-145 prostate = tested on: DU-145 prostate
CAKI-1 renal = tested on: CAKI-1 renal
SR leukemia = tested on: SR leukemia
SK-MEL-5 melanoma = tested on: SK-MEL-5 melanoma
NCI/ADR-RES ovarian = tested on: NCI/ADR-RES ovarian
MCF7 breast = tested on: MCF7 breast
MDA-N = tested on: MDA-N
SK-MEL-2 melanoma = tested on: SK-MEL-2 melanoma
COLO 205 colon = tested on: COLO 205 colon
786-0 renal = tested on: 786-0 renal
BT-549 breast = tested on: BT-549 breast
TK-10 renal = tested on: TK-10 renal
SF-539 CNS = tested on: SF-539 CNS
LOX IMVI melanoma = tested on: LOX IMVI melanoma
HT29 colon = tested on: HT29 colon
MOLT-4 leukemia = tested on: MOLT-4 leukemia
A549 NSCLC = tested on: A549 NSCLC

SMILES	TGI (MDA-MB-435) [µM]	TGI (OVCAR-5 ovarian) [µM]	TGI (HCT-15 colon) [µM]	TGI (DU-145 prostate) [µM]	TGI (CAKI-1 renal) [µM]	TGI (SR leukemia) [µM]	TGI (SK-MEL-5 melanoma) [µM]	TGI (NCI/ADR-RES ovarian) [µM]	TGI (MCF7 breast) [µM]	TGI (MDA-N) [µM]	TGI (SK-MEL-2 melanoma) [µM]	TGI (COLO 205 colon) [µM]	TGI (786-0 renal) [µM]	TGI (BT-549 breast) [µM]	TGI (TK-10 renal) [µM]	TGI (SF-539 CNS) [µM]	TGI (LOX IMVI melanoma) [µM]	TGI (HT29 colon) [µM]	TGI (MOLT-4 leukemia) [µM]	TGI (A549 NSCLC) [µM]
O=c1cc(CO)oc(C(O)c2ccccc2)c1O (stereo unspecified)	> 100	> 100	> 100	> 100	> 100	> 100	> 100	> 100	> 100	> 100	> 100	> 100	> 100	> 100	> 100	> 100	> 100	> 100	> 100	> 100
Cc1cc(C2CC(O)C(CO)O2)c(F)cc1F (stereo unspecified)	> 100	> 100	> 100	> 100	> 100	> 100	–	> 100	> 100	> 100	–	> 100	> 100	> 100	> 100	> 100	> 100	> 100	> 100	> 100
CC(=O)N(CCc1ccccc1)C(C#N)c1ccccc1 (stereo unspecified)	> 100	> 100	> 100	> 100	> 100	> 100	> 100	> 100	> 100	> 100	> 100	> 100	> 100	> 100	> 100	> 100	> 100	> 100	> 100	> 100
CC(=O)Oc1ccc2c(c1)c1c(=O)oc(C)nc1n2Cc1ccccc1	99.4	> 100	> 100	> 100	34.4	> 100	> 100	> 100	> 100	> 88.1	> 71.6	> 100	> 100	> 66.3	> 91.2	> 100	> 100	> 100	> 100	> 100
COc1cc(O)c(C(=O)/C=C/c2ccc(O)cc2)cc1Oc1ccc(/C=C/C(=O)c2ccc(O)cc2O)cc1	25.7	26.4	21	23.6	38.9	16.1	14.3	26.7	22.9	31	21.9	15.4	16.5	22.6	25.6	16.2	18.3	14.2	38.8	> 50
CC1CC[C@@]2(OC1)OC1C[C@H]3[C@@H]4CC[C@H]5CC(OC6OC(CO)C(O)C(OC7OC(CO)C(OC8OC(CO)C(O)C(OC9OC(CO)C(O)C(O)C9O)C8OC8OC(CO)C(O)C(O)C8O)C(O)C7O)C6O)[C@H](O)CC5(C)[C@H]4CCC3(C)C1[C@@H]2C (stereo partly specified)	14.6	12.9	19.3	12.1	11.3	2.98	13.6	12.5	5.43	13.8	9.78	6.04	6.76	10.5	11.8	6.76	9.05	11.1	16.4	21.6
O=C1c2cccc3cccc(c23)C(=O)N1CCCNCCCNCCCCNCCCNCCCN1C(=O)c2cccc3cccc(c23)C1=O	10.1	21.9	30.9	14	29.6	> 31.8	41.1	46.8	1.61	6.83	16.8	–	6.12	15.1	25	23.7	> 38.1	5.5	2.84	12.9
O=C1/C(=C/c2cccc(Br)c2)Cc2ccccc21	> 100	> 100	> 100	> 100	> 100	> 100	–	> 100	> 100	> 100	> 100	89.7	> 100	> 100	> 100	> 100	> 100	> 100	> 100	> 100
COc1ccc(NC(=O)N(C)CC2(O)CCC(C(C)(C)C)CC2)cc1 (stereo unspecified)	> 100	> 100	> 100	> 100	10.3	> 100	–	> 100	> 100	> 100	> 100	> 100	> 100	> 100	> 100	> 100	74.7	> 100	> 100	> 100
Nc1nc(Cl)c(N)c(NCC2(CO)CCCC2)n1	> 100	> 100	> 100	> 100	> 100	> 100	> 100	> 100	> 100	> 100	> 100	–	> 100	> 100	> 100	> 100	> 100	> 100	> 100	> 100
COC(=O)CC1C=CC(C)(OC)OO1 (stereo unspecified)	> 100	> 100	> 100	> 100	> 100	> 100	> 100	> 100	> 100	> 100	> 100	> 100	> 100	> 100	> 100	> 100	> 100	> 100	–	> 100
Cn1c(=O)oc2cc(C(O)CN3CCN(Cc4ccccn4)CC3)c(Cl)cc21 (stereo unspecified)	> 100	> 100	> 100	> 100	> 100	> 100	–	> 100	> 100	> 100	–	> 100	> 100	> 100	> 100	> 100	> 100	> 100	> 100	> 100
